We go through 13 compounds from patent US7115639B2, “Pyrrolidine oxadiazole- and thiadiazole oxime derivatives being oxytocin receptor antagonists” (Applied Research Systems ARS Holding N.V., priority 2001, dated 2006).

SMILES strings stand for the structures.

The target in one data set is T1, hOT receptor (Homo sapiens, UniProt P30559).
T1 construct: expressed in transfected cells; host or cells: HEK293EBNA
T1 sequence (P30559 1-389): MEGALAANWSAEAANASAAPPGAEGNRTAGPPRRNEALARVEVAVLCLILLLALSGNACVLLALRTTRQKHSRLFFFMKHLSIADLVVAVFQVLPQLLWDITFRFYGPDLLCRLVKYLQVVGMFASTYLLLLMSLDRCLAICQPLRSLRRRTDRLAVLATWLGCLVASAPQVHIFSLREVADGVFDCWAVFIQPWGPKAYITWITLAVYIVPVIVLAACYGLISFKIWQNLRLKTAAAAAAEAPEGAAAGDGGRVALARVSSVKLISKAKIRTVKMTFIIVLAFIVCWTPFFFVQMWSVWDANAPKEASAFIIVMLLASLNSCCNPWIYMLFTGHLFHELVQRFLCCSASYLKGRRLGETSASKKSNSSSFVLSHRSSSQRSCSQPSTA
The data set can be described thus: In vitro competition binding assay with scintillating proximity assay. As to conditions: [125I]-OVTA competition; membranes from HEK293EBNA cells expressing the hOT receptor; read-out: Binding affinity human OT-R IC50. Here is the method:
a) In Vitro Competition Binding Assay with Scintillating Proximity Assay (Pharmaceutical Manufacturing International, 1992, p. 49–53 by Cook, N. D. et al)
This assays allows to determine the affinity of the test compounds for the OT receptor. Membranes from HEK293EBNA cells expressing the hOT receptor were resuspended in buffer containing 50 mM Tris-HCl, pH 7.4, 5 mM MgCl2 and 0.1% BSA (w/v). The membranes (2–4 μg) were mixed with 0.1 mg wheat-germ aglutinin (WGA) SPA bead (type A) and 0.2 nM of the radiolabel [^125I]-OVTA (OVTA being Ornithin Vasoactive and is an analogue of OT for competition binding experiments). Non-specific binding was determined in the presence of 1 μM Oxytocin. The total assay volume was 100 μl. The plates (Corning® NBS plate) were incubated at room temperature for 30 min and counted on a Mibrobeta plate counter. The tests compounds were used in concentrations of 30 μM, 10 μM, 1 μM, 300 nM, 100 nM, 10 nM, 1 nM, 100 pM, 10 pM. The competition binding data were analysed using the iterative, non-linear, curve-fitting program, “Prism”.
The binding affinities to the oxytocin receptor of the pyrrolidine derivatives claimed in the formula I were assessed using the above described in vitro biological assay. The values refer to the binding affinity (IC50; μM) of the example compounds according to formula I to the Oxytocin receptor.

For another data set, the target named is T2, hOT-R (Homo sapiens, UniProt P30559).
T2 construct: expressed in transfected cells; host or cells: HEK (Human Embryonic Kidney) cells
T2 sequence (P30559 1-389): T1 sequence (P30559 1-389)
The data set can be described thus: Functional assay No. 1: inhibition of Ca2+-mobilization by FLIPR. In kind it is cell-based. The note with it: HEK cells, OT 40 nM. The source says:
b) Functional Assay No. 1: Inhibition of Ca^2+-mobilization by FLIPR (Fluorescent Imaging Plate Reader)
FLIPR is a machine for fluorescence imaging using a laser that is capable of illuminating a 96-well plate and a means of simultaneously reading each well thus enabling rapid measurements on a large number of samples.
This assay intends to show the inhibition of the OT/OT-R mediated calcium mobilisation—being necessary to cause uterine contractions—by using test compounds of formula (I).
Preparing the plates: FLIPR-plates were pre-coated with PLL (Poly-L-Lysine) 10 μg/ml+0.1% gelatine to attach the HEK (Human Embryonic Kidney) cells for 30 min up to 2 days at 37° C. The cells were plated out into 96-well plates (60000 cells/well).
Labelling with fluo-4: 50 μg fluo-4 (fluorescent marker) were dissolved in 20 μl pluronic acid (20% in DMSO). The dissolved fluo-4 was then diluted in 10 ml DMEM (Dubecco's Minimal Essential Medium-F12 medium without FCS (Fetal Calf Serum). The medium was removed from the plates, followed by one wash with DMEM-F12 medium. Now, 100 μl of the DMEM-F12 medium containing fluo-4 were added and the cells incubated for 1–1.5 h (CHO-cells), and 1.5–2 h (HEK-cells). The cells now contain the fluorescent marker.
Buffer: 145 mM NaCl, 5 mM KCl, 1 mM MgCl2, 10 mM Hepes, 10 mM Glucose, EGTA (Ethylene-bis oxyethylene nitrilo tetraacetic acid). Adjust to pH 7.4.
Performance of the assay: A minimum of 80 μl/well of antagonists (5×) in the above buffer (1×) were prepared (96-well plates). The antagonists were added to the well-plates at different concentrations (30 μM, 10 μM, 1 μM, 300 nM, 100 nM, 10 nM, 1 nM, 100 pM, 10 pM).
OT is added at a concentration of 40 nM.
The fluorescent market being sensitive to the amount of Ca^2+ mobilized within the cell may be quantified by the FLIPR machine.
The activities of the pyrrolidine derivatives according to formula I were assessed using the above described in vitro biological assay. The values refer to the capacity of the example compounds according to formula I to effectively antagonize oxytocin-induced intracellular Ca^2+-mobilization mediated by the Oxytocin receptor.

The subject of data set [1] is oxytocin-induced uterine contractions in the rat. The data set can be described thus: In vivo model for inhibition of uterine contractions.
Data set [2] has the same test system. Described as above. Here is the method: d) In Vivo Model for Inhibition of Uterine Contractions
The assay intends to show the biological effect of tested compounds in an in vivo model of preterm labor, premature birth.
Non-pregnant Charles River CD(SD) BR female rats (9–10 weeks old, 200–250 g) were treated at 18 and 24 hours before the experiment with 250 μg/kg, i.p. diethylstilbestrol (DES). For the assay, the animal was anaesthetised by urethane (1.75 g/kg, i.p.) and placed on an homeothermic operating table. The trachea was isolated and cannulated with a suitable polyethylene (PE) tubing. A midline incision at the hypogastrium level was made and one uterine horn exposed, its cephalic end cannulated with a PE240 tubing and, after filling the internal cavity with 0.2 ml of sterile physiological saline, connected to a “Gemini” amplifying/recording system via a P231D Gould Statham pressure transducer, in, order to measure said pressure. For the i.v. route of administration of the test compounds, one jugular vein was isolated and cannulated with a PE60 tubing connected to a butterfly needle to allow the administration by a dispensing syringe. In the case of intraduodenal administration of the test compounds, the duodenum was isolated and similarly cannulated through a small incision in its wall. One carotid artery was also isolated and cannulated with PE60 catheter and connected to a suitable syringe for blood sample collection (see below). After a stabilization period, the same dose of oxytocin was repeatedly injected intravenously at 30-min intervals. […] Further injections of the same dose of oxytocin were then made for a suitable time after treatment to assess inhibitory effects of the compounds under study. The contractile response of the uterus to oxytocin was quantified by measuring the intrauterine pressure and the number of contractions.
A total of six animals is forming one group which is treated with a given test compound at a given concentration (see above).
The effect of the test compounds were evaluated by comparing pre- and post-treatment pressure values. In addition, at 2, 30, 90 and 210 minutes after test compound administration, a 0.5-ml blood sample was withdrawn from the cannulated carotid artery of each experimental animal. Plasma was obtained by standard laboratory procedure and the resulting samples were stored at −20° C.
The activities of the pyrrolidine derivatives claimed in the formula I were assessed using the above described in vivo biological assay. The values refer to the capacity of the example compound according to formula I to effectively antagonize oxytocin-induced uterine contractions in the rat.
The source holds these as a separate data set.

With `CCC(O)c1noc([C@@H]2CC(=NOC)CN2C(=O)c2ccc(-c3ccccc3)cc2)n1` (mixture of isomers) [(3EZ,5S)-1-([1,1′-biphenyl]-4-ylcarbonyl)-5-{3-[(1RS)-1-hydroxypropyl]-1,2,4-oxadiazol-5-yl}-3-pyrrolidinone O-methyloxime], on hOT receptor, the IC50 worked out at 6 nM.

In the case of `CO/N=C1\C[C@@H](c2nc(C)no2)N(C(=O)c2ccc(-c3ccccc3C)cc2)C1` [(3E,5S)-1-[(2′-methyl[1,1′-biphenyl]-4-yl)carbonyl]-5-(3-methyl-1,2,4-oxadiazol-5-yl)-3-pyrrolidinone O-methyloxime], the IC50 on hOT receptor was found to be 23 nM.

For the compound `CON=C1C[C@@H](c2nnco2)N(C(=O)c2ccc(-c3ccccc3)cc2)C1` [(3EZ,5S)-1-([1,1′-biphenyl]-4-ylcarbonyl)-5-(1,3,4-oxadiazol-2-yl)-3-pyrrolidinone O-methyloxime], the half-maximal inhibitory concentration (IC50) was determined as 220 nM against hOT-R and 211 nM on hOT receptor.

`CON=C1C[C@@H](c2nc(C)no2)N(C(=O)c2ccc(-c3ccccc3)cc2)C1` [(3EZ,5S)-1-([1,1′-biphenyl]-4-ylcarbonyl)-5-(3-methyl-1,2,4-oxadiazol-5-yl)-3-pyrrolidinone O-methyloxime]: the IC50 was 4 nM against hOT-R and 88 nM on hOT receptor.

For the compound `CON=C1C[C@@H](c2nc(CCO)no2)N(C(=O)c2ccc(-c3ccccc3)cc2)C1` [(3EZ,5S)-1-([1,1′-biphenyl]-4-ylcarbonyl)-5-[3-(2-hydroxyethyl)-1,2,4-oxadiazol-5-yl]-3-pyrrolidinone O-methyloxime], the concentration for half-maximal inhibition (IC50) on hOT receptor turned out to be 11 nM.

`CON=C1C[C@@H](c2nc(CC(=O)N3CCCC3)no2)N(C(=O)c2ccc(-c3ccccc3)cc2)C1` [(3EZ,5S)-1-([1,1′-biphenyl]-4-ylcarbonyl)-5-{3-[2-oxo-2-(1-pyrrolidinyl)ethyl]-1,2,4-oxadiazol-5-yl}-3-pyrrolidinone O-methyloxime]: on hOT receptor, the IC50 was 7 nM.

Consider `CON=C1C[C@@H](c2nc(C)no2)N(C(=O)c2ccc(-c3ccccc3Cl)cc2)C1` [(3EZ,5S)-1-[(2′-chloro[1,1′-biphenyl]-4-yl)carbonyl]-5-(3-methyl-1,2,4-oxadiazol-5-yl)-3-pyrrolidinone O-methyloxime], for which, on hOT-R, half-maximal inhibition (IC50) required 1 nM.

As for `CON=C1C[C@@H](c2nc(C)no2)N(C(=O)c2ccc(-c3ccccc3C)cc2)C1` [(3EZ,5S)-1-[(2′-methyl[1,1′-biphenyl]-4-yl)carbonyl]-5-(3-methyl-1,2,4-oxadiazol-5-yl)-3-pyrrolidinone O-methyloxime], the IC50 against hOT-R turned out to be 12 nM; on hOT receptor it was 21 nM.

For `CON=C1C[C@@H](c2noc(C3CCN(C(C)=O)CC3)n2)N(C(=O)c2ccc(-c3ccccc3)cc2)C1` [(3EZ,5S)-5-[5-(1-acetyl-4-piperidinyl)-1,2,4-oxadiazol-3-yl]-1-([1,1′-biphenyl]-4-ylcarbonyl)-3-pyrrolidinone O-methyloxime], the IC50 at hOT receptor worked out at 2 nM.

Take `CO/N=C1/C[C@@H](c2noc(CN(C)C)n2)N(C(=O)c2ccc(-c3ccccc3)cc2)C1` [(3Z,5S)-1-([1,1′-biphenyl]-4-ylcarbonyl)-5-{5-[(dimethylamino)methyl]-1,2,4-oxadiazol-3-yl}-3-pyrrolidinone O-methyloxime]: the “% Reduction of Uterine Contraction” value in data set [1] (oral, NP3S, 1 mg/kg) is recorded as −11.1 ± 1.3%; in data set [1] (oral, NP3S, 3 mg/kg) it was −42.1 ± 2.9%; in data set [2] (oral, NP3S, 10 mg/kg), −49.5 ± 6.1%; in data set [2] (oral, NP3S, 30 mg/kg), −74.4 ± 4.2%.

`CO/N=C1/C[C@@H](c2nc(C)no2)N(C(=O)c2ccc(-c3ccccc3C)cc2)C1` [(3Z,5S)-1-[(2′-methyl[1,1′-biphenyl]-4-yl)carbonyl]-5-(3-methyl-1,2,4-oxadiazol-5-yl)-3-pyrrolidinone O-methyloxime]: the 50% inhibitory concentration (IC50) came to 4 nM at hOT-R and 9 nM on hOT receptor. Moreover, the “% Reduction of Uterine Contraction” value in data set [1] (Intravenous, NP3S 5 ml/kg infusion, 3 mg/kg) was −58.0 ±5.9%; in data set [1] (Intravenous, NP3S, 7.5 ml/kg infusion, 30 mg/kg), −80.3 ± 5.1%; in data set [2] (Intravenous, NP3S 5 ml/kg infusion, 0.3 mg/kg), −21.5 ± 7.3%; in data set [2] (Intravenous, NP3S 5 ml/kg infusion, 1 mg/kg) it was −44.6 ± 7.1%; in data set [2] (Intravenous, NP3S 5 ml/kg infusion, 10 mg/kg), −67.2 ± 10.1%.

Consider `CO/N=C1\C[C@@H](c2nc(CCO)no2)N(C(=O)c2ccc(-c3ccccc3)cc2)C1` [Example 9 (3E), (3E,5S)-1-([1,1′-biphenyl]-4-ylcarbonyl)-5-[3-(2-hydroxyethyl)-1,2,4-oxadiazol-5-yl]-3-pyrrolidinone O-methyloxime], for which the melting point worked out at 140.5 °C.

Regarding `CON=C1C[C@@H](c2noc(CNC(C)=O)n2)N(C(=O)c2ccc(-c3ccccc3)cc2)C1` [N-({3-[(2S,4EZ)-1-([1,1′-biphenyl]-4-ylcarbonyl)-4-(methoxyimino)pyrrolidinyl]-1,2,4-oxadiazol-5-yl}methyl)acetamide], on hOT receptor, the IC50 was 3 nM.
